# Reference: ChEMBL document CHEMBL3108737, “HIV Integrase Inhibitors for Treatment of HIV Infections and AIDS” (ACS Med Chem Lett, 2014)
# Target: Human immunodeficiency virus type 1 integrase (Human immunodeficiency virus 1) (UniProt Q7ZJM1)
# Assay: Inhibition of HIV1 integrase-mediated viral replication in human MT4 cells after 72 hrs in presence of 10% normal human serum
# Format: cell-based
# Sequence of Human immunodeficiency virus type 1 integrase (Human immunodeficiency virus 1) (Q7ZJM1 as listed by the source): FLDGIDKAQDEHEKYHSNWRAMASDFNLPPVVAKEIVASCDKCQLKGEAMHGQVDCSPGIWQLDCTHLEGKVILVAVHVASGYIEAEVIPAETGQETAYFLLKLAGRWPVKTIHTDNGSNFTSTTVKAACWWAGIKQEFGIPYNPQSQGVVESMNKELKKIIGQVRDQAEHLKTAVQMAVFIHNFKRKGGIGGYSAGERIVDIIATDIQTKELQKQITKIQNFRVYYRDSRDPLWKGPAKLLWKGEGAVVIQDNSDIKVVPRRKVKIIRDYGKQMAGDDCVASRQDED
row,IC95 [nM],SMILES
1,2260,CN1CCCc2cc(F)ccc2CNC(=O)c2nc3n(c(=O)c2O)CCCCC3N(C)C(=O)C1=O (stereo not drawn)
2,6,CC[C@H]1COCC2c3nc(c(O)c(=O)n31)C(=O)NCc1cc(C)c(F)cc1OCC/C=C/C(=O)N2C (stereo partly drawn)
3,9,CC[C@H]1COC[C@@H]2c3nc(c(O)c(=O)n31)C(=O)NCc1ccc(F)cc1OCCCCC(=O)N2C
